# According to US12428395B2, “Heterocyclic compounds as kinase inhibitor and uses thereof” (SPEROGENIX THERAPEUTICS LIMITED, priority 2019, dated 2025):
# Molecular target: CHK-1 kinase (Homo sapiens (Human), UniProt O14757)
# Experiment: CHK-1 Kinase Assay (Z-LYTE based TR-FRET)
# Assay type: biochemical
# Details: for inhibition at 0.1 µM: 0.1 μM compound, read-out: % Inhibition of CHK-1 enzyme activity @ 0.1 μM; for inhibition at 1 µM: 1 μM compound, read-out: % Inhibition of CHK-1 enzyme activity @ 1 μM; for inhibition at 5 µM: 5 μM compound, read-out: % Inhibition of CHK-1 enzyme activity @ 5 μM
# Protocol: IC50 values of compounds for inhibition of CHK-1 kinase or percent inhibition at defined concentrations were determined by Z-LYTE™ based TR-FRET assay. Kinase reactions were performed in a 10 μL volume in low-volume 384-well plates. The concentration of substrate (Ser Thr 19) was maintained at 2 μM in the assay, and the kinase reaction buffer consisted of 50 mM HEPES pH 7.5, 0.01% BRIJ-35, 10 mM MgCl2, 1 mM EGTA, 2 mM DTT. Serially diluted compounds (3-fold) in DMSO (0.5% in final reaction) were incubated with cocktail of CHK-1 kinase (5 ng/ml; Cat #P3040, ThermoFisher), substrate Ser Thr 19, (2 μM; Cat #PV4529, ThermoFisher), ATP (53 μM; Cat #PV3227, ThermoFisher) and buffer. Kinase reactions were allowed to proceed for 1 hour at room temperature after which 5 μL of a 1:256 dilution of Development Reagent A was added. The plate was allowed to incubate at room temperature for 60 minutes before being read on a BMG Pherastar plate reader using the Z-LYTE™ filter block for Z-LYTE™ TR-FRET. The resulting TR-FRET emission ratio was used to calculate percent inhibition by normalizing with the control using the following formula: — [% Inhibition=1−{(% Phosphorylationsample/% Phosphorylationcontrol (0% Inhibition)}·100] For calculation of IC50, the percent inhibition obtained was plotted against the concentration of inhibitor, and the data was fit to a sigmoidal dose-response curve with a variable slope. The IC50 was calculated from the curve.
# Chain of CHK-1 kinase (O14757 whole entry): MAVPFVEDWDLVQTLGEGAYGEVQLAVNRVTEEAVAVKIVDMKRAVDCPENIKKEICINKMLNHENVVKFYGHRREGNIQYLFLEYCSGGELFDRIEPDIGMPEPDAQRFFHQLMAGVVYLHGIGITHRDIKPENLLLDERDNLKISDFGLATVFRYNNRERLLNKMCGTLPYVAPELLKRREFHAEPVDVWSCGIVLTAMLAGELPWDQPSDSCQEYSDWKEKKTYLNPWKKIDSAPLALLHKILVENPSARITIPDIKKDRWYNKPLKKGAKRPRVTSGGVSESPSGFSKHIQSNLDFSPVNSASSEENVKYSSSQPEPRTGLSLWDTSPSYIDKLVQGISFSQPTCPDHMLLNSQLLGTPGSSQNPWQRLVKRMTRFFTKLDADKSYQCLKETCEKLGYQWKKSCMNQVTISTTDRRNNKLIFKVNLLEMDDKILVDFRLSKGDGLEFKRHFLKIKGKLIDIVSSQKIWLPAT
inhibition at 0.1 µM [%],inhibition at 1 µM [%],inhibition at 5 µM [%],IC50 [µM],SMILES
8,10,42,,"N#Cc1cnc(Nc2cc(NCC3CCNCC3)c(-c3cccc(N4CCCCC4)c3)nn2)cn1 [1.25, 5-(6-(3-(piperidin-1-yl)phenyl)-5-(piperidin-4-ylmethylamino)pyridazin-3-ylamino)pyrazine-2-carbonitrile]"
2,2,34,,"N#Cc1cnc(Nc2cc(NCC3CCNCC3)c(-c3cccc4[nH]ccc34)nn2)cn1 [1.24, 5-(6-(1H-indol-4-yl)-5-(piperidin-4-ylmethylamino)pyridazin-3-ylamino)pyrazine-2-carbonitrile]"
,3,5,,"Cn1cc(Nc2cc(NCC3CNCCO3)c(-c3ccccc3)nn2)cn1 (centres unmarked) [1.4, N3-(1-methyl-1H-pyrazol-4-yl)-N5-(morpholin-2-ylmethyl)-6-phenylpyridazine-3,5-diamine]"
7,8,23,,"Cc1nnc(Nc2cnc(C#N)cn2)cc1NCC1CCNCC1 [1.15, 5-(6-methyl-5-(piperidin-4-ylmethylamino)pyridazin-3-ylamino)pyrazine-2-carbonitrile]"
,,,> 10,"N#Cc1cnc(Nc2cc(OCC3CNCCO3)cnn2)cn1 (centres unmarked) [1.9, 5-(5-(morpholin-2-ylmethoxy)pyridazin-3-ylamino)pyrazine-2-carbonitrile]"
13,48,86,,"Cn1ccc(-c2nnc(Nc3cnc(C#N)cn3)cc2NCC2CCNCC2)n1 [1.28, 5-(6-(1-methyl-1H-pyrazol-3-yl)-5-(piperidin-4-ylmethylamino)pyridazin-3-ylamino)pyrazine-2-carbonitrile]"
7,18,41,,"COc1ccc(-c2nnc(Nc3cnc(C#N)cn3)cc2NCC2CCNCC2)cc1 [1.23, 5-(6-(4-methoxyphenyl)-5-(piperidin-4-ylmethylamino)pyridazin-3-ylamino)pyrazine-2-carbonitrile]"
3,3,15,,"CN(C)C(=O)c1nnc(Nc2cnc(C#N)cn2)cc1NCC1CCNCC1 [1.32, 6-(5-cyanopyrazin-2-ylamino)-N,N-dimethyl-4-(piperidin-4-ylmethylamino)pyridazine-3-carboxamide]"
3,5,33,,"N#Cc1cnc(Nc2cc(NCC3CCNCC3)c(-c3ccc(F)cc3)nn2)cn1 [1.21, 5-(6-(4-fluorophenyl)-5-(piperidin-4-ylmethylamino)pyridazin-3-ylamino)pyrazine-2-carbonitrile]"
10,35,75,,"N#Cc1cnc(Nc2cc(NCC3CCNCC3)c(OCC(F)(F)F)nn2)cn1 [1.33, 5-(5-(piperidin-4-ylmethylamino)-6-(2,2,2-trifluoroethoxy)pyridazin-3-ylamino)pyrazine-2-carbonitrile]"
0,9,26,,"COc1cccc(-c2nnc(Nc3cnc(C#N)cn3)cc2NCC2CCNCC2)c1 [1.26, 5-(6-(3-methoxyphenyl)-5-(piperidin-4-ylmethylamino)pyridazin-3-ylamino)pyrazine-2-carbonitrile]"
3,12,41,,"N#Cc1cnc(Nc2cc(NCC3CNCCO3)c(C3CC3)nn2)cn1 (centres unmarked) [1.17, 5-(6-cyclopropyl-5-(morpholin-2-ylmethylamino)pyridazin-3-ylamino)pyrazine-2-carbonitrile]"
0,11,25,,"CC(C)Oc1nnc(Nc2cnc(C#N)cn2)cc1NCC1CCNCC1 [1.31, 5-(6-isopropoxy-5-(piperidin-4-ylmethylamino)pyridazin-3-ylamino)pyrazine-2-carbonitrile]"
,,,5.81,"N#Cc1cnc(Nc2cc(NCC3CCNCC3)c(C(F)(F)F)nn2)cn1 [1.8, 4-((6-(5-cyanopyrazin-2-ylamino)-3-(trifluoromethyl)pyridazin-4-ylamino)methyl)piperidinium 2,2,2-trifluoroacetate]"
8,3,15,,"CN1CCC(CNc2cnnc(Nc3cnc(C#N)cn3)c2)CC1 [1.10, 5-(5-((1-methylpiperidin-4-yl)methylamino)pyridazin-3-ylamino)pyrazine-2-carbonitrile]"
19,60,93,,"N#Cc1cnc(Nc2cc(NCC3CCOCC3)c(C(N)=O)nn2)cn1 [1.29, 6-(5-cyanopyrazin-2-ylamino)-4-((tetrahydro-2H-pyran-4-yl)methylamino)pyridazine-3-carboxamide]"
8,27,65,,"N#Cc1cnc(Nc2cc(NCC3CCNCC3)c(-c3ccc(Oc4ccccc4)cc3)nn2)cn1 [1.22, 5-(6-(4-phenoxyphenyl)-5-(piperidin-4-ylmethylamino)pyridazin-3-ylamino)pyrazine-2-carbonitrile]"
6,24,59,,"N#Cc1cnc(Nc2cc(NCC3CCNCC3)c(C3CC3)nn2)cn1 [1.18, 5-(6-cyclopropyl-5-(piperidin-4-ylmethylamino)pyridazin-3-ylamino)pyrazine-2-carbonitrile]"
2,15,45,,"Cc1nnc(Nc2cnc(C#N)cn2)cc1NCC1CNCCO1 (centres unmarked) [1.14, 5-(6-methyl-5-(morpholin-2-ylmethylamino)pyridazin-3-ylamino)pyrazine-2-carbonitrile]"
28,78,97,,"CNC(=O)c1nnc(Nc2cnc(C#N)cn2)cc1NCC1CCOCC1 [1.30, 6-(5-cyanopyrazin-2-ylamino)-N-methyl-4-((tetrahydro-2H-pyran-4-yl)methylamino)pyridazine-3-carboxamide]"
0,8,34,,"N#Cc1cnc(Nc2cc(NCC3CCNCC3)c(-c3ccc(CO)cc3)nn2)cn1 [1.27, 5-(6-(4-(hydroxymethyl)phenyl)-5-(piperidin-4-ylmethylamino)pyridazin-3-ylamino)pyrazine-2-carbonitrile]"
,,,> 10,"CC(C)(C)OC(=O)N1CCOC(CNc2cc(Nc3cnc(C#N)cn3)nnc2C(F)(F)F)C1 (centres unmarked) [1.5, tert-butyl 2-((6-(5-cyanopyrazin-2-ylamino)-3-(trifluoromethyl)pyridazin-4-ylamino)methyl)morpholine-4-carboxylate]"
9,9,11,,"Cn1ccc(-c2nnc(Nc3cnc(C#N)cn3)cc2OCC2CNCCO2)n1 (centres unmarked) [1.13, 5-(6-(1-methyl-1H-pyrazol-3-yl)-5-(morpholin-2-ylmethoxy)pyridazin-3-ylamino)pyrazine-2-carbonitrile]"
